Assay [1] concerns the target human full length His-tagged BTK (Homo sapiens (Human), UniProt Q06187). Put plainly: BTK Lanthscreen Eu Kinase Binding assay. Particulars: 2 nM BTK. As for the experimental part:
BTK Lanthscreen® Eu Kinase Binding Assay:
A Lanthscreen® Eu Kinase Binding assay (Life Technologies) is performed to quantitate the ability of test compounds to bind to BTK. The assay is based on the binding and displacement of Alexa Fluor647-labeled Kinase Tracer #236 to the ATP-binding site of human full length His-tagged BTK (Life Technologies cat #PV3587) with TR-FRET detection using a europium-labeled anti-His antibody. The assay is assembled in 384-well low volume NBS black plates (Corning) where 2 nM BTK and test compound in DMSO at varying concentrations are pre-incubated for 30 min at 28° C. in assay buffer consisting of 50 mM HEPES, pH 7.4, 10 mM MgCl2, 1 mM EGTA. 100 μM Na3VO4 and 0.01% Brij 35. Then, 2 nM of Eu-anti His antibody and 30 nM Kinase Tracer are added and incubated for 60 min at 28° C. Following incubation, TR-FRET signal is read on an Envision plate reader (Excitation: 340 nm; Emissions: 615 and 665 nm). The 665:615 nm emission ratio is calculated and converted to POC compared to control and blank wells.

In assay [2] the test system is BTK (IL-6 production in primary CD19+ B cells). Put plainly: Inhibition of IL-6 production in B cells co-stimulated with ODN 2006 and anti-hIgD. The format is cell-based. Particulars: B-cell, anti-human IgD + ODN 2006. The method, then: Inhibition of IL-6 Production in B Cells Co-Stimulated with ODN 2006 and anti-hIgD
Primary CD19+ B cells (AllCells #PB010F) are thawed and plated in RPMI containing 10% HI FBS in a 384-well tissue cultured plate at 20,000 cells/well. The cells are treated with test compound (0.5% DMSO final concentration) and incubated for 1 hour at 37° C., 5% CO2. Cells are then stimulated with 5 ug/mL Goat F(ab′)2 anti-human IgD (SouthernBiotech #2032) and 2 uM ODN 2006 (InvivoGen #tlrl-2006) and incubated for 18-24 hours at 37° C., 5% CO2. IL-6 in the supernatant is measured using Meso Scale Discovery kit #K211AKB-6.
(§1) Representative compounds of the present invention are tested and show BTK inhibition (Table I). […] Additionally, compounds of the present invention, as represented by examples in Table II, are selective for BTK inhibition over other related kinases. […] In this table the BTK activity is measured by IL-6 production in primary CD19^+ B cells, and the EGFR activity is measured by EGFR phosphorylation in A431 cells.

The target of assay [3] is EGFR (EGFR phosphorylation in A431 cells) (Homo sapiens (Human), UniProt P00533). Put plainly: Inhibition of EGFR autophosphorylation in A431 human epithelial cells stimulated with EGF. The format is cell-based. The following applies: EGF 60 ng/mL, read-out: A431 p-EGFR IC50. As for the experimental part:
Inhibition of EGFR Autophosphorylation in A431 Human Epithelial Cells Stimulated with Epithelial Growth Factor
A431 cells (ATCC #CRL-1555 FZ) are thawed and plated in DMEM containing 10% FBS in a 384-well tissue culture treated plate at 15,000 cells/well. After incubating for 24 hours at 37° C., 5% CO2, the cells are treated with test compound (1% DMSO final concentration) and incubated for 16 hours at 37° C., 5% CO2. EGF (Millipore, 01-107) is added at a final concentration of 60 ng/mL and incubated for 10 minutes. The medium is removed, the cells are lysed, and phospho EGFR is measured (Meso Scale Diagnostics, N31CB-1).
as §1

Assay [4] addresses human recombinant BTK (full length, His-tagged) (Homo sapiens (Human), UniProt Q06187). Put plainly: BTK Z'-LYTE assay.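 Also: FRET readout of kinase phosphorylating a coumarin and fluorescein labelled synthetic peptide, detected via protease sensitivity of unphosphorylated versus phosphorylated substrate, incubated at 22 °C in 384-well plates.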 The format is biochemical. Particulars: 25 μM ATP.
Procedure: Z′-LYTE™ Assay (Life Technologies):
(§2) The Z′-Lyte assay employs a FRET-based, coupled-enzyme format and is based on the differential sensitivity of phosphorylated and non-phosphorylated peptides to proteolytic Cleavage. The activity of human recombinant BTK (full length, His-tagged), BMX (full length, His-tagged) or Txk (full length, GST-tagged) is estimated by measuring the phosphorylation of a synthetic FRET peptide substrate labeled with Coumarin and Fluorescein. […] Incubations are carried out at 22° C. in black polypropylene 384-well plates (Corning).
(§3) Representative compounds of the present invention are assessed for inhibition of BTK, BMX, and TXK measuring phosphorylation of a substrate (Z′-LYTE™ assay, Life Technologies) and TEC measuring displacement of a “tracer” (Lanthscreen® Eu Kinase Binding assay, Life Technologies).
For assay [5], the target named is human recombinant full length TEC (His-tagged) (Homo sapiens (Human), UniProt P42680). Put plainly: TEC Lanthscreen Eu Kinase Binding assay. Particulars: 1 nM TEC.
Assay [6] has as its target human recombinant Txk (full length, GST-tagged) (Homo sapiens (Human), UniProt P42681). Put plainly: TXK Z'-LYTE assay.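 Also: FRET read-out of kinase phosphorylation of a synthetic peptide labelled with Coumarin and Fluorescein, scored by protease sensitivity of unphosphorylated peptide, incubated at 22 °C.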 The following applies: read-out: TXK IC50, 100 μM ATP.
Procedure: Z′-LYTE™ Assay (Life Technologies):
as §2, §3

SMILES strings stand for the structures.

The IC50 is the midpoint of a concentration-inhibition curve.

human recombinant Txk (full length, GST-tagged), sequence (P42681 whole entry): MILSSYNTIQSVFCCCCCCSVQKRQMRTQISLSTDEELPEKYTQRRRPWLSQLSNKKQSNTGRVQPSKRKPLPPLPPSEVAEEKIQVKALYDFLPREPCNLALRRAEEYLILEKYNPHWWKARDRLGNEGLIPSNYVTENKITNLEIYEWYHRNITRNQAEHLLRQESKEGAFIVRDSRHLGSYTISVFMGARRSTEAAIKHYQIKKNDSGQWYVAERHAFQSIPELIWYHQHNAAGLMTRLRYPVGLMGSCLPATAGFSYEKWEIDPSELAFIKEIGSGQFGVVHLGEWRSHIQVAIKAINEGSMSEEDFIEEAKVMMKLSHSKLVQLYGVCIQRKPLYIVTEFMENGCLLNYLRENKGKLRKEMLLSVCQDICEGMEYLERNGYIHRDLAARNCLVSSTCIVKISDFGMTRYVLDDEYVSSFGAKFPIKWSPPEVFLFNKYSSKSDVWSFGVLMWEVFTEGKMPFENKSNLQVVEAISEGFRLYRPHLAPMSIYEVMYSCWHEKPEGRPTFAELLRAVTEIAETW
EGFR (EGFR phosphorylation in A431 cells), sequence (P00533 25-1210): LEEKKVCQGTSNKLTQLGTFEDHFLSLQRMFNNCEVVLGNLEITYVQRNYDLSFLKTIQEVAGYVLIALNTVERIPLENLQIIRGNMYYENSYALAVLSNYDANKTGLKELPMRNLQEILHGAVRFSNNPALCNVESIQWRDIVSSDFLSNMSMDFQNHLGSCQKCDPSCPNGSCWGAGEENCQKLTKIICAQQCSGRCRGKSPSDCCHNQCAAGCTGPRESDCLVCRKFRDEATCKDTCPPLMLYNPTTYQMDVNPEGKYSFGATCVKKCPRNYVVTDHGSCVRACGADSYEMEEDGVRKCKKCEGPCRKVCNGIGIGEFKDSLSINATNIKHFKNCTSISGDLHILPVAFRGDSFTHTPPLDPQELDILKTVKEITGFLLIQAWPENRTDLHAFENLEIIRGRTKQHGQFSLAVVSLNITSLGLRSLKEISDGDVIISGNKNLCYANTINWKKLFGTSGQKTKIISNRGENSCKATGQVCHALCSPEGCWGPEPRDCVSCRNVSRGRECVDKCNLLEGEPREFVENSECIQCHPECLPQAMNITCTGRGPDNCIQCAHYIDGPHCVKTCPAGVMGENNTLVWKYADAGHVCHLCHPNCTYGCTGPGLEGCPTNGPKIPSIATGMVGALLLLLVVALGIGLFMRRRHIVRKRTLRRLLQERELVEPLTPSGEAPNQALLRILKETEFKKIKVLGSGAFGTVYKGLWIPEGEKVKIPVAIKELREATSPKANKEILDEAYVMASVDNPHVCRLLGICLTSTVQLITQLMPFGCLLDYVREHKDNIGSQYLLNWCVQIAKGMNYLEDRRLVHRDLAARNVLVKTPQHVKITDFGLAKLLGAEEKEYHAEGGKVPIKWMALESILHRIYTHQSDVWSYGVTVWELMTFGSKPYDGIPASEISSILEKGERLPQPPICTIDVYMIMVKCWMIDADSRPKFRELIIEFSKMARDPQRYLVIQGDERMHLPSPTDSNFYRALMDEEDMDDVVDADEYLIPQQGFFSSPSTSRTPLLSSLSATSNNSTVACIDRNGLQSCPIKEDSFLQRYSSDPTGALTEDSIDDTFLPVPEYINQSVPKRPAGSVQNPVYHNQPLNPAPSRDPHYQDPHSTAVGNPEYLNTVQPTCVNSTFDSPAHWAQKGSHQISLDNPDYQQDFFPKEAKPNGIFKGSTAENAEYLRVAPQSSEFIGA
human recombinant full length TEC (His-tagged), sequence (P42680 whole entry): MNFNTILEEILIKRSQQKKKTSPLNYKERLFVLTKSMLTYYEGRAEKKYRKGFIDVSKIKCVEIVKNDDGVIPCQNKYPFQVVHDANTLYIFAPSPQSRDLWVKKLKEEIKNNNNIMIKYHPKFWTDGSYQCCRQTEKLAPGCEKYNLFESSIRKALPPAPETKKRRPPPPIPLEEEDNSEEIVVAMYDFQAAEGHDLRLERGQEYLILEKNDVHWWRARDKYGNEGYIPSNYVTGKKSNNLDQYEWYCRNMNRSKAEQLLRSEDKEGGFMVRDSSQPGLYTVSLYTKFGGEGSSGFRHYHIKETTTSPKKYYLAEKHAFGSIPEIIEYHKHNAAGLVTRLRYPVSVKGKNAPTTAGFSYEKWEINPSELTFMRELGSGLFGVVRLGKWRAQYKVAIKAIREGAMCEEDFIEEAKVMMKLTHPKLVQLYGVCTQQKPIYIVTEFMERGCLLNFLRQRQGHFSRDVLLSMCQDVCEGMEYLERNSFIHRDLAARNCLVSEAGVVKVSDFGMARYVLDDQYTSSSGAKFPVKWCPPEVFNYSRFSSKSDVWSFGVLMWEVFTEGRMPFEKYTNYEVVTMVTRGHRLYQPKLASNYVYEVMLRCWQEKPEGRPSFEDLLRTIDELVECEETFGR
human full length His-tagged BTK, sequence (Q06187 whole entry): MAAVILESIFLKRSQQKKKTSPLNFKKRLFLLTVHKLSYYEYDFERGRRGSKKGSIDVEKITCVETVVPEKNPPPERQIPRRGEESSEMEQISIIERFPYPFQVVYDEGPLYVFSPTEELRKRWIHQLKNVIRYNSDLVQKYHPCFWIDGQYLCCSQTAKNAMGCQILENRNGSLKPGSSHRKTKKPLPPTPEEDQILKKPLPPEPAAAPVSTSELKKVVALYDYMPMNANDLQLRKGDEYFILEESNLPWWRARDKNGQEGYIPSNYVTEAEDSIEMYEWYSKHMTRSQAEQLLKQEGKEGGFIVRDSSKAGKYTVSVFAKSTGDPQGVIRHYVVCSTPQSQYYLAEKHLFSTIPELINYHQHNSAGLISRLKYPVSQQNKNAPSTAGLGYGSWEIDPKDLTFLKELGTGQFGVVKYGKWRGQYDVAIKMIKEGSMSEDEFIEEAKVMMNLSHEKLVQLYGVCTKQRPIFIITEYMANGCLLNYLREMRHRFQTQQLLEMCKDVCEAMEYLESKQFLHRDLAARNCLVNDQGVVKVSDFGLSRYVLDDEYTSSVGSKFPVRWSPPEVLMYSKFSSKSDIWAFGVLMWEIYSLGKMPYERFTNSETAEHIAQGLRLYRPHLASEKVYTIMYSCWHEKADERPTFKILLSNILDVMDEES
human recombinant BTK (full length, His-tagged), sequence (Q06187 whole entry): as above

In the case of `CC#CC(=O)N1CC[C@]2(C1)C[C@H](n1nc(-c3cnn(Cc4cccc(C(F)(F)F)c4)c3)c(C(N)=O)c1NC)C2` [Example 23], the IC50 was 1.3 nM in assay [1]; 4.5 nM in assay [2]; over 10000 nM in assay [3]; 8.3 nM in assay [4]; 130 nM in assay [5]; 600 nM in assay [6].
Turning to `CC#CC(=O)N1CC[C@]2(C1)C[C@H](n1nc(-c3cnn(Cc4cccc(C(F)(F)F)c4C)c3)c(C(N)=O)c1N)C2` [Example 6], the IC50 was 0.4 nM in assay [1]; 1 nM in assay [2]; over 10000 nM in assay [3]; 1.5 nM in assay [4]; 65 nM in assay [5]; 43 nM in assay [6].
Take `CC#CC(=O)N1CC[C@]2(C1)C[C@H](n1nc(-c3cnn(Cc4cccc(F)c4C(F)(F)F)c3)c(C(N)=O)c1N)C2` [Example 56]: the IC50 in assay [1] was 0.6 nM; in assay [2], 0.7 nM; in assay [3] it was over 10000 nM; in assay [4] it was 2.2 nM; in assay [5], 120 nM; in assay [6], 150 nM.
Regarding `CC#CC(=O)N1CC[C@]2(C1)C[C@H](n1nc(-c3cnn(Cc4ccccc4F)c3)c(C(N)=O)c1N)C2` [Example 60], the IC50 was 0.5 nM in assay [1]; 0.6 nM in assay [2]; over 10000 nM in assay [3]; 1.7 nM in assay [4]; 35 nM in assay [5]; 100 nM in assay [6].
Consider `CC#CC(=O)N1CC[C@]2(C1)C[C@H](n1nc(-c3cnn(Cc4cccc(C(F)(F)F)c4C#N)c3)c(C(N)=O)c1N)C2` [Example 10], for which the IC50 is 0.5 nM in assay [1]; 1.1 nM in assay [2]; over 10000 nM in assay [3]; 1.4 nM in assay [4]; 120 nM in assay [5]; 100 nM in assay [6].
Consider `C=CC(=O)N1CC[C@]2(C1)C[C@H](n1nc(-c3cnn(Cc4cccc(C(F)(F)F)c4F)c3)c(C(N)=O)c1N)C2` [Example 26], for which the IC50 is 2.6 nM in assay [1]; 4 nM in assay [2]; over 10000 nM in assay [3]; 18 nM in assay [4]; 430 nM in assay [5]; 3000 nM in assay [6].
`CC#CC(=O)N1CC2(CC(n3nc(-c4cnn(Cc5cccc(C(F)(F)F)c5)c4)c(C(N)=O)c3N)C2)C1` [Example 47]: the IC50 in assay [1] was 0.5 nM; in assay [2] it was 1.1 nM; in assay [3], over 10000 nM; in assay [4] it was 2.7 nM; in assay [5] it was 34 nM; in assay [6], 310 nM.
Take `CC#CC(=O)N1CC[C@]2(C1)C[C@H](n1nc(-c3cnn(Cc4ccccc4C)c3)c(C(N)=O)c1N)C2` [Example 16]: the IC50 was 1.5 nM in assay [1]; 2 nM in assay [2]; over 10000 nM in assay [3]; 13 nM in assay [4]; 220 nM in assay [5]; 430 nM in assay [6].
In the case of `CC#CC(=O)N1CC[C@]2(C1)C[C@H](n1nc(-c3cnn(Cc4cccc(F)c4Cl)c3)c(C(N)=O)c1N)C2` [Example 53], the IC50 in assay [1] was 0.3 nM; in assay [2], 0.4 nM; in assay [3], over 10000 nM; in assay [4], 1.3 nM; in assay [5], 47 nM; in assay [6], 84 nM.
Turning to `CC#CC(=O)N1CC[C@]2(C1)C[C@H](n1nc(-c3cnn(Cc4cccc(C(F)(F)F)c4F)c3)c(C(N)=O)c1N)C2` [Example 33], the half-maximal inhibitory concentration (IC50) in assay [1] was 0.4 nM; in assay [2], 1.2 nM; in assay [3] it was over 10000 nM; in assay [4] it was 1.3 nM; in assay [5], 48 nM; in assay [6] it was 59 nM.
Regarding `CC#CC(=O)N1CC[C@]2(C1)C[C@H](n1nc(-c3c(C)nn(Cc4cccc(C(F)(F)F)c4)c3C)c(C(N)=O)c1N)C2` [Example 21], the IC50 was 5.8 nM in assay [1]; 9.2 nM in assay [2]; over 10000 nM in assay [3]; 40 nM in assay [4]; 1100 nM in assay [5]; 1900 nM in assay [6].
In the case of `CC#CC(=O)N1CC[C@]2(C1)C[C@H](n1nc(-c3ccn(Cc4cccc(C(F)(F)F)c4)n3)c(C(N)=O)c1N)C2` [Example 25], the half-maximal inhibitory concentration (IC50) was 2.6 nM in assay [1]; 6.1 nM in assay [2]; over 10000 nM in assay [3]; 19 nM in assay [4]; 160 nM in assay [5]; 850 nM in assay [6].
On to `CC#CC(=O)N1CC[C@]2(C1)C[C@H](n1nc(-c3cn(Cc4cccc(C)c4)nc3C)c(C(N)=O)c1N)C2` [Example 52], for which the IC50 in assay [1] was 1.2 nM; in assay [2], 0.5 nM; in assay [3] it was over 10000 nM; in assay [4], 7 nM; in assay [5] it was 100 nM; in assay [6], 260 nM.
`CC#CC(=O)N1CC[C@]2(C1)C[C@H](n1nc(-c3cn(Cc4cccc(C(F)(F)F)c4)nc3C)c(C(N)=O)c1N)C2` [Example 19]: the half-maximal inhibitory concentration (IC50) in assay [1] was 0.9 nM; in assay [2] it was 2.3 nM; in assay [3], over 10000 nM; in assay [4], 5 nM; in assay [5], 160 nM; in assay [6], 220 nM.
Turning to `CC#CC(=O)N1CC[C@]2(C1)C[C@H](n1nc(-c3cnn(Cc4ccccc4Cl)c3)c(C(N)=O)c1N)C2` [Example 54], the IC50 in assay [1] is 0.5 nM; in assay [2], 0.4 nM; in assay [3], over 10000 nM; in assay [4], 1.5 nM; in assay [5] it was 35 nM; in assay [6], 110 nM.
`CC#CC(=O)N1CC[C@]2(C1)C[C@H](n1nc(-c3cnn(Cc4cc(F)ccc4Cl)c3)c(C(N)=O)c1N)C2` [Example 55]: the IC50 in assay [1] was 0.7 nM; in assay [2], 1.5 nM; in assay [3], over 10000 nM; in assay [4], 2.5 nM; in assay [5] it was 67 nM; in assay [6], 79 nM.
Take `CC#CC(=O)N1CC[C@]2(C1)C[C@H](n1nc(-c3cnn(Cc4cccc(C(F)F)c4)c3)c(C(N)=O)c1N)C2` [Example 36]: the IC50 is 0.2 nM in assay [1]; 0.5 nM in assay [2]; over 10000 nM in assay [3]; 1 nM in assay [4]; 22 nM in assay [5]; 50 nM in assay [6].
For `CC#CC(=O)N1CC[C@]2(C1)C[C@H](n1nc(-c3cnn(Cc4ccc(F)c(C(F)(F)F)c4)c3)c(C(N)=O)c1N)C2` [Example 30], the IC50 in assay [1] was 0.6 nM; in assay [2], 2.4 nM; in assay [3], over 10000 nM; in assay [4], 3 nM; in assay [5], 64 nM; in assay [6], 160 nM.
With `CC#CC(=O)N1CC[C@]2(C1)C[C@H](n1nc(-c3cnn(Cc4cccc(C5CC5)c4)c3)c(C(N)=O)c1N)C2` [Example 51], the IC50 was 0.3 nM in assay [1]; 1.9 nM in assay [2]; over 10000 nM in assay [3]; 0.8 nM in assay [4]; 18 nM in assay [5]; 12 nM in assay [6].
For the compound `CC#CC(=O)N1CC[C@]2(C1)C[C@H](n1nc(-c3cnn(Cc4ccccc4)c3)c(C(N)=O)c1N)C2` [Example 44], the half-inhibitory concentration (IC50) is 0.3 nM in assay [1]; 0.7 nM in assay [2]; over 10000 nM in assay [3]; 1.4 nM in assay [4]; 20 nM in assay [5]; 78 nM in assay [6].

The values are drawn from US9975882B2, “Heteroaromatic compounds as BTK inhibitors” (Boehringer Ingelheim International GmbH, priority 2015, dated 2018).
